Test system: HCC1599
Experiment: normalised viability (% of control), CellTiter-Blue; higher = more viable cells (about 100 = DMSO control)
Settings: 10000 nM; incubation time: 72 h
How it was run: (§1)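 Compound dissolved in 5 µl medium was pre-loaded into 384-well plates, and breast cancer cell lines in 20 µl suspension were seeded on top and incubated 72 h. After adding 2.5 µl CellTiter-Blue reagent for 2 h at 37 °C, fluorescence was read at 560/590 nm. Plates were normalised to vehicle (100) and a positive kill control (0), with Z'-factor quality control. Each value is normalised viability at a single listed concentration from the series.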

Compound | normalised viability [%]
Clc1ccc(Nc2nnc(Cc3ccncc3)c3ccccc23)cc1 [Vatalanib] | 113
NCC(=O)CCC(=O)O [Aminolevulinic acid] | 90.8

Test system: MDA-MB-231
Experiment: as above
Settings: 1 nM; incubation time: 72 h
How it was run: as §1

Compound | normalised viability [%]
CCN(CCCOc1ccc2c(Nc3cc(CC(=O)Nc4cccc(F)c4)[nH]n3)ncnc2c1)CCOP(=O)(O)O [Barasertib] | 110
CO[C@H]1/C=C\C=C(/C)C(=O)NC2=CC(=O)C(NCCN(C)C)=C(C[C@@H](C)C[C@H](OC)[C@H](O)[C@@H](C)/C=C(\C)[C@@H]1OC(N)=O)C2=O [Alvespimycin] | 99
NC(=O)Nc1cc(-c2cccc(F)c2)sc1C(=O)N[C@H]1CCCNC1 [AZD 7762] | 112

Same assay, conditions: 10 nM; incubation time: 72 h

Compound | normalised viability [%]
O=C1CCC(N2C(=O)c3ccccc3C2=O)C(=O)N1 (stereo unspecified) [Thalidomide] | 97.2
C=C(c1ccc(C(=O)O)cc1)c1cc2c(cc1C)C(C)(C)CCC2(C)C [Bexarotene] | 91.2
CCC1(c2ccc(N)cc2)CCC(=O)NC1=O (stereo unspecified) [Aminoglutethimide] | 86.9
Clc1ccc(Nc2nnc(Cc3ccncc3)c3ccccc23)cc1 [Vatalanib] | 90.1
NCC(=O)CCC(=O)O [Aminolevulinic acid] | 107

Same assay, conditions: 100 nM; incubation time: 72 h

Compound | normalised viability [%]
CCN(CCCOc1ccc2c(Nc3cc(CC(=O)Nc4cccc(F)c4)[nH]n3)ncnc2c1)CCOP(=O)(O)O [Barasertib] | 75.3
CO[C@H]1/C=C\C=C(/C)C(=O)NC2=CC(=O)C(NCCN(C)C)=C(C[C@@H](C)C[C@H](OC)[C@H](O)[C@@H](C)/C=C(\C)[C@@H]1OC(N)=O)C2=O [Alvespimycin] | 35.2
NC(=O)Nc1cc(-c2cccc(F)c2)sc1C(=O)N[C@H]1CCCNC1 [AZD 7762] | 102

Same assay, conditions: 1000 nM; incubation time: 72 h

Compound | normalised viability [%]
O=C1CCC(N2C(=O)c3ccccc3C2=O)C(=O)N1 (stereo unspecified) [Thalidomide] | 109
C=C(c1ccc(C(=O)O)cc1)c1cc2c(cc1C)C(C)(C)CCC2(C)C [Bexarotene] | 86.5
CCC1(c2ccc(N)cc2)CCC(=O)NC1=O (stereo unspecified) [Aminoglutethimide] | 90.2
Clc1ccc(Nc2nnc(Cc3ccncc3)c3ccccc23)cc1 [Vatalanib] | 90.8
NCC(=O)CCC(=O)O [Aminolevulinic acid] | 93.2
CCN(CCCOc1ccc2c(Nc3cc(CC(=O)Nc4cccc(F)c4)[nH]n3)ncnc2c1)CCOP(=O)(O)O [Barasertib] | 81.1
CO[C@H]1/C=C\C=C(/C)C(=O)NC2=CC(=O)C(NCCN(C)C)=C(C[C@@H](C)C[C@H](OC)[C@H](O)[C@@H](C)/C=C(\C)[C@@H]1OC(N)=O)C2=O [Alvespimycin] | 28.3
NC(=O)Nc1cc(-c2cccc(F)c2)sc1C(=O)N[C@H]1CCCNC1 [AZD 7762] | 31.2

Same assay, conditions: 10000 nM; incubation time: 72 h

Compound | normalised viability [%]
O=C1CCC(N2C(=O)c3ccccc3C2=O)C(=O)N1 (stereo unspecified) [Thalidomide] | 124
C=C(c1ccc(C(=O)O)cc1)c1cc2c(cc1C)C(C)(C)CCC2(C)C [Bexarotene] | 105
CCC1(c2ccc(N)cc2)CCC(=O)NC1=O (stereo unspecified) [Aminoglutethimide] | 106
Clc1ccc(Nc2nnc(Cc3ccncc3)c3ccccc23)cc1 [Vatalanib] | 85.1
NCC(=O)CCC(=O)O [Aminolevulinic acid] | 111

Test system: DU-4475
Experiment: as above
Settings: 0.3 nM; incubation time: 72 h
How it was run: as §1

Compound | normalised viability [%]
CCN(CCCOc1ccc2c(Nc3cc(CC(=O)Nc4cccc(F)c4)[nH]n3)ncnc2c1)CCOP(=O)(O)O [Barasertib] | 112
CO[C@H]1/C=C\C=C(/C)C(=O)NC2=CC(=O)C(NCCN(C)C)=C(C[C@@H](C)C[C@H](OC)[C@H](O)[C@@H](C)/C=C(\C)[C@@H]1OC(N)=O)C2=O [Alvespimycin] | 99
NC(=O)Nc1cc(-c2cccc(F)c2)sc1C(=O)N[C@H]1CCCNC1 [AZD 7762] | 99.3

Same assay, conditions: 3 nM; incubation time: 72 h

Compound | normalised viability [%]
O=C1CCC(N2C(=O)c3ccccc3C2=O)C(=O)N1 (stereo unspecified) [Thalidomide] | 98.9
C=C(c1ccc(C(=O)O)cc1)c1cc2c(cc1C)C(C)(C)CCC2(C)C [Bexarotene] | 98.7
CCC1(c2ccc(N)cc2)CCC(=O)NC1=O (stereo unspecified) [Aminoglutethimide] | 107
Clc1ccc(Nc2nnc(Cc3ccncc3)c3ccccc23)cc1 [Vatalanib] | 98.2
NCC(=O)CCC(=O)O [Aminolevulinic acid] | 104
CCN(CCCOc1ccc2c(Nc3cc(CC(=O)Nc4cccc(F)c4)[nH]n3)ncnc2c1)CCOP(=O)(O)O [Barasertib] | 105
CO[C@H]1/C=C\C=C(/C)C(=O)NC2=CC(=O)C(NCCN(C)C)=C(C[C@@H](C)C[C@H](OC)[C@H](O)[C@@H](C)/C=C(\C)[C@@H]1OC(N)=O)C2=O [Alvespimycin] | 93.1
NC(=O)Nc1cc(-c2cccc(F)c2)sc1C(=O)N[C@H]1CCCNC1 [AZD 7762] | 109

Same assay, conditions: 10 nM; incubation time: 72 h

Compound | normalised viability [%]
CCN(CCCOc1ccc2c(Nc3cc(CC(=O)Nc4cccc(F)c4)[nH]n3)ncnc2c1)CCOP(=O)(O)O [Barasertib] | 91.6
CO[C@H]1/C=C\C=C(/C)C(=O)NC2=CC(=O)C(NCCN(C)C)=C(C[C@@H](C)C[C@H](OC)[C@H](O)[C@@H](C)/C=C(\C)[C@@H]1OC(N)=O)C2=O [Alvespimycin] | 84.5
NC(=O)Nc1cc(-c2cccc(F)c2)sc1C(=O)N[C@H]1CCCNC1 [AZD 7762] | 100

Same assay, conditions: 30 nM; incubation time: 72 h

Compound | normalised viability [%]
O=C1CCC(N2C(=O)c3ccccc3C2=O)C(=O)N1 (stereo unspecified) [Thalidomide] | 99.7
C=C(c1ccc(C(=O)O)cc1)c1cc2c(cc1C)C(C)(C)CCC2(C)C [Bexarotene] | 102
CCC1(c2ccc(N)cc2)CCC(=O)NC1=O (stereo unspecified) [Aminoglutethimide] | 86.9
Clc1ccc(Nc2nnc(Cc3ccncc3)c3ccccc23)cc1 [Vatalanib] | 100
NCC(=O)CCC(=O)O [Aminolevulinic acid] | 77.5

Same assay, conditions: 100 nM; incubation time: 72 h

Compound | normalised viability [%]
O=C1CCC(N2C(=O)c3ccccc3C2=O)C(=O)N1 (stereo unspecified) [Thalidomide] | 109
